Experiments:
Assay type in all cases: physicochemical
[1] = Stern-Volmer analysis of singlet oxygen suppression
Source text: The singlet oxygen phosphorescence intensity in the absence of the compound of Formulas I(a)(1), II(a)(1), II(d)(1), II(e)(1), or a mixture of II(b)(1) and II(c)(1) (I0) divided by the singlet oxygen phosphorescence intensity in the presence of compounds of Formula I/II(I) was plotted against the Formula I/II concentration (FIG. 16). From the slope of these plots (Stern-Volmer constant) and the lifetime of the quenched excited state, the bimolecular quenching constant can be extracted. If the excited state, which is quenched by the compound of Formula I(a)(1) (which causes a reduction in singlet oxygen production) is the singlet excited state of protoporphyrin IX then, using the previously measured fluorescence lifetime in acetonitrile (if =12.7 ns) a quenching rate constant of 2.4×10^9 M^−1 s^−1 is estimated. […] The rate constant derived from singlet oxygen phosphorescence quenching (FIG. 16) is only half of the more directly derived rate constant from fluorescence quenching, which could be caused by the difference in solvents or by some contribution of protoporphyrin triplet quenching by the compound of Formula I(a)(1). […] This rate constant is 5 times higher than the directly measured rate constant by laser flash photolysis (6.1×10^6 M^−1 s^−1). […] It must be noted that protoporphyrin IX triplet lifetime of ˜1 μs in air saturated DMSO was only estimated based on the directly measured triplet lifetime in air saturated acetonitrile and considering the different oxygen concentration in DMSO compared to acetonitrile. If necessary, the protoporphyrin IX triplet lifetime in air saturated DMSO can easily be measured by laser flash photolysis. The complex reaction mechanism is summarized in Scheme 1 (FIG. 17).
The biomolecular quenching rate constants for singlet excited state (kq^S) and triplet excited state (kq^T) quenching of PPIX by stabilizers in acetonitrile solutions at room temperature is shown in Table 4, as well and the Stern-Volmer rate constants.
Stern-Volmer constants are in direct correlation with the singlet oxygen suppression efficiency. Table 4 (above) summarizes the Stern-Volmer constants and PPIX singlet and triplet state quenching rate constants. Three different ranges of Stern-Volmer constants were observed. […] For compounds I(a)(1), II(d)(1), and the mixture of II(b)(1) and II(c)(1), Stern-Volmer constants of about 30 M^−1 were observed. For these three stabilizers, high PPIX singlet quenching rate constants (about 5×10^9 M^−1 s^−1) but low triplet quenching rate constants (<10^9 M^−1 s^−1) were observed. Here, the singlet oxygen suppression is probably dominated by PPIX singlet excited state quenching by these stabilizers. […] Because of the very high PPIX triplet quenching rate constant by compound II(a)(1) (3.2×10^9 M^−1 s^−1), the singlet oxygen suppression is probably dominated by triplet quenching. […] These kinetic parameters may include the MePPIX triplet and singlet lifetimes in air saturated and oxygen free CDCl3 and the bimolecular quenching constant by oxygen.

[2] = Luminescence experiments in ethanol (room temperature and 77 K matrix)
Description: Because Formula II(a)(1) contains a ketone functionality, intersystem crossing into the triplet state could be promoted after photoexcitation due to spin-orbit coupling. Stabilizer triplet states could generate singlet oxygen. Low-temperature luminescence experiments in a ethanol matrix at 77 K were performed in search for phosphorescence of potential triplet states.
The quenching mechanism of protoporphyrin IX singlet excited states and triplet states by the compound of Formulas I, II, and III may be further clarified. A simple energy transfer mechanism would depend on the singlet and triplet energies of compounds of Formula I and protoporphyrin IX. To get information on excited state energies of the stabilizer, luminescence experiments were performed. […] However, weak luminescence was observed of the compound of Formula I(a)(1) in a frozen ethanol matrix at 77 K. The luminescence with maximum at 575 nm (FIG. 7c) originates from the compound of Formula I(a)(1), because the luminescence excitation spectrum (FIG. 7b) matches well the absorption spectrum of the compound of Formula I(a)(1) (FIG. 5a). The luminescence lifetime could not be determined, because of the weak signal intensity. […] If the luminescence at 575 nm is the fluorescence, then the Stoke's shift is unusually large. Independent of the assignment of the luminescence to the fluorescence or phosphorescence, this excited state energy is higher than singlet and triplet energies of protoporphyrin IX and rules out a simple energy transfer quenching mechanism. Another possible quenching mechanism is electron transfer quenching which would depend on the redox potentials of the protoporphyrin and the two quencher compounds.

[3] = Voltammetry, redox potential with respect to Ag/AgCl reference electrode; details: vs Ag/AgCl; for second redox couple, oxidation peak: the small peak where two are given
Source text: For these experiments, dimethylsulfoxide (DMSO) and tetrabutylammonium perchlorate (TBAP) were obtained from Sigma Aldrich and used as received. […] Platinum wires (BASi MW-1032) of diameter 0.5 mm were employed for both the working electrode (WE) and counter electrode (CE). A dry-solvent tolerant Ag/AgCl reference electrode (RE) was obtained from eDAQ (Model ET072). The WE and CE were cleaned prior to each by first rinsing in acetone, then DI, followed by soaking in ˜50% aqueous H2SO4 for 10-20 minutes and then a final DI rinse. The RE electrode was cleaned prior to each use by an acetone rinse followed by DI rinse. Each sample solution was prepared in a fresh glass vial which had been rinsed with DI then acetone and allowed to dry Immediately after preparing each solution, it was purged with pure N2 gas for 15-20 minutes with the electrodes in place. Voltammetry data was collected shortly afterwards with an EG&G PAR 263 A Potentiostant/Galvanostat operated using a Labview-based control program. Scans were performed at various potential ranges between +2.0V and −2.0V (vs Ag/AgCl); all scan rates were constant at 200 mV/s.

[4] = Protoporphyrin IX triplet state quenching by laser flash photolysis; details: for Triplet Quenching Rate Constant: PPIX, acetonitrile solutions at room temperature
Description: To investigate if triplet states of protoporphyrin IX are quenched by the two compounds, laser flash photolysis experiments were performed. In these experiments, a deoxygenated acetonitrile solution of protoporphyrin IX is excited with short laser pulses from a Nd-YAG laser (355 nm, 5 ns pulse width). Difference absorption kinetic traces were recorded at different observation wavelengths (300 to 800 nm) and from these a transient absorption spectrum was constructed (FIG. 5A). […] In addition, two bands are observed at 320 and 440 nm, which are assigned to the triplet-triplet absorption of protoporphyrin IX. […] Triplet absorption kinetics at 440 nm may be utilized to obtain triplet quenching rate constants by the stabilizers. Triplet decay traces at 440 nm were recorded in the presence of different amounts of the alkoxy […], Formulas […])(1), and the mixture of II(b)(1) and II(c)(1). The decay traces were fitted to a first-order kinetics. The plot of these pseudo-first-order rate constants (inverse decay lifetime) vs. the concentration of the two compounds gives directly the bimolecular triplet quenching rate constant from the slope (FIG. 6). The biomolecular quenching rate constants for singlet excited state (kq^S) and triplet excited state (kq^T) quenching of PPIX by stabilizers in acetonitrile solutions at room temperature is shown in Table 4, as well and the Stern-Volmer rate constants.

[5] = Protoporphyrin IX fluorescence lifetime quenching (singlet excited state); details: for bimolecular quenching rate constant for singlet excited state quenching (in words) / Singlet Quenching Rate Constant: PPIX; for Singlet Quenching Rate Constant: acetonitrile solutions at room temperature
Description: Fluorescence lifetime measurements are a convenient way to measure singlet state quenching by stabilizers. Protoporphyrin IX decay traces were recorded in the absence and presence of compound I(a)(1) and alkoxy […] (FIG. 3). […] The collected data shown in FIG. 3 were used to determine the bimolecular quenching rate constant for singlet excited state quenching by the compounds. The quenching rate constant may be directly extracted from the slope of the plot of the inverse fluorescence lifetime vs. the concentration of the two compounds (FIG. 4). […] The biomolecular quenching rate constants for singlet excited state (kq^S) and triplet excited state (kq^T) quenching of PPIX by stabilizers in acetonitrile solutions at room temperature is shown in Table 4, as well and the Stern-Volmer rate constants.

[6] = 0.01 M in 0.1 M TBAP in DMSO, 200 mV/s

Row | SMILES | rate constant from Stern-Volmer plot, if suppression entirely caused by triplet quenching ([1]; considering triplet lifetime ~1 μs in air saturated DMSO) [M⁻¹ s⁻¹] | quenching rate constant from Stern-Volmer constant, if singlet excited state is quenched ([1]; using fluorescence lifetime 12.7 ns) [M⁻¹ s⁻¹] | luminescence maximum ([2]; ethanol matrix at 77 K) [nm] | fluorescence at room temperature ([2]; ethanol solution) | first (or only) redox couple, oxidation peak [3, 6] [mV] | first (or only) redox couple, reduction peak [3, 6] [mV] | second redox couple, reduction peak [3, 6] [mV] | first (or only) redox couple, redox potential ([3]; estimated from the peaks) [mV] | second redox couple, redox potential ([3]; estimated from the peaks) | second redox couple, oxidation peak [3] [mV] | PPIX triplet quenching rate constant by laser flash photolysis [4] [M⁻¹ s⁻¹] | Triplet Quenching Rate Constant [4] | bimolecular quenching rate constant for singlet excited state quenching (in words) ([5]; acetonitrile) | Singlet Quenching Rate Constant [5] | rate constant of PPIX singlet quenching using fluorescence quenching ([5]; acetonitrile) [M⁻¹ s⁻¹] | quenching of protoporphyrin IX fluorescence (fluorescence lifetime) ([5]; acetonitrile, alkoxy crylene even at 0.1 M) | Stern-Volmer Constant of ^1O2 Suppression [1] [M⁻¹] | luminescence quantum yield ([2]; ethanol matrix at 77 K) | second redox couple, oxidation peak (large) [3] | PPIX triplet quenching (in words) ([4]; triplet decay at 440 nm)
1 | COC(=O)C(C#N)=C1c2ccccc2-c2ccccc21 [Formula I(a)(1)] | ~3e+07 | 2.4e+09 | 575 | did not give detectable fluorescence | −560 | −757 | −1297 | −658 | approximately −1199 mV | −1102 | 6.1e+06 | 0.0061 10^9 M^−1s^−1 | high quenching rate constant | 5.3 10^9 M^−1s^−1 | 5.3e+09 | significantly quenches |  |  |  | 
2 | COC(=O)C(C#N)=C1c2ccccc2C(=O)c2ccccc21 [Formula II(a)(1)] |  |  | 492 |  |  |  | −1537 |  | −1501 mV | −1466 | 3.2e+09 | 3.2 10^9 M^−1s^−1 | high quenching rate constant | 5.2 10^9 M^−1s^−1 |  |  | 240 | less than 1% | +430 mV | most efficient quencher
